Measurements as given in patent US5756491A, “Antiviral cobalt-organic compounds” (priority 1991, dated 1998).
Converted amounts (≈) assume the structure as drawn. “And” between values parts separate entries of the source, which are not always exact repeats. Identical values can stand only once.

Columns and labels:
HSV-2 = HSV-2 cytopathic effect (CPE) inhibition assay; type: cell-based; details: Human alphaherpesvirus 2; HSV-2, CPE
Description: (§1) Low passage human foreskin fibroblast cells were seeded into 96 well tissue culture plates 24 hours prior to use at a cell concentration of 2.5×10^4 cells per ml in 0.1 ml (MEM) supplemented with 10% fetal bovine serum (FBS). The cells were then incubated for 24 hour at 37° C. in a CO2 incubator. After incubation, the medium was removed and 100 μl of MEM containing 2% FBS was added to all but the first row. In the first row, 125 μl of experimental drug was added in triplicate wells. Medium alone was added to both cell and virus control wells. The drug in the first row of wells was then diluted serially 1:5 throughout the remaining wells by transferring 25 μl using the Cetus Liquid Handling Machine. After dilution of drug, 100 μl of the appropriate virus concentration was added to each well, excluding cell control wells which received 100 μl of MEM. For HSV-1 and HSV-2 assays, the virus concentration utilized was 1000 PFU's per well. For CMV and VZV assays, the virus concentration added was 2500 PFU per well. The plates were then incubated at 37° C. in a CO2 incubator for three days for HSV-1 and HSV-2, 10 days for VZV, or 14 days for CMV. […] The plates were allowed to dry for 24 h and then read on a Skatron Plate Reader at 620 nm.
(§2) I. EC50 values were also determined for each of the viruses tested for known antiviral agents. […]

EBV = EBV IMN assay; type: cell-based; details: human gammaherpesvirus 4, EBV
Description: (§3) I. EC50 values were also determined for each of the viruses tested for known antiviral agents. The comparison compound was ACV for all viruses except for HCMV aherein DHPG was the comparison compound. In Table 26, these comparison EC50 values are indicated with an asterisk. In Table 27, the drug FIAU (2'-fluoro-5-iodo-arabinosyl-uracil) was used as a control.

HSV-1 [1] = experiment: HSV-1 plaque reduction assay; type: cell-based; details: Human alphaherpesvirus 1, read-out: EC50
Description: Two days prior to use, HFF cells are plated into six well plates and incubated at 37° C. with 5% CO2 and 90% humidity. On the date of assay, the drug is made up at twice the desired concentration in 2×MEM and then serially diluted 1:5 in 2×MEM using six concentrations of drug. The initial starting concentration is usually 200 μg/ml down to 0.06 μg/ml. The virus to be used is diluted in MEM containing 10% FBS to a desired concentration which will give 20-30 plaques per well. The media is then aspirated from the wells and 0.2 ml of virus is added to each well in duplicate with 0.2 ml of media being added to drug toxicity wells. The plates are then incubated for one hour with shaking every fifteen minutes. After the incubation period, an equal amount of 1% agarose was added to a equal volume of each drug dilution. This will give final drug concentrations beginning with 100 μg/ml and ending with 0.03 μg/ml and a final agarose overlay concentration of 0.5%. The drug agarose mixture is applied to each well in 2 ml volume and the plates then incubated for three days, after which the cells were stained with a 1.5% solution of neutral red. At the end of 4-6 hr incubation period, the stain is aspirated, and plaques counted using a stereomicroscope at 1×magnification.
(§4) The procedure for the liquid overlay plaque assay is similar to that using the agarose overlay. The procedure for adding the virus is the same as for the regular plaque assay. The drugs are made up in a concentration to be used in MEM with 2% FBS. The drugs are not made up at 2×concentration as in previous assays but are made up at the desired concentration. For HSV-1 and HSV-2 assays, an antibody preparation obtained from Baxter Health Care Corporation is diluted 1:500 and added to the media that the drug is diluted in. For CMV and VZV, no antibody in the overlay is utilized. For the CMV assay, additional medium without new drug is added on day six and allowed to incubate for a total of 11 days. For VZV, additional media is added on day five and incubated for a total of eight days. At the end of the incubation period for all of the assays, the medium is removed, the cells washed and then stained with 0.1% crystal violet solution for ten minutes. The cells are then rinsed several times to remove any excess crystal violet and plaques enumerated using a stereomicroscope.
as §3

HSV-1 [2] = experiment: HSV-1 cytopathic effect (CPE) inhibition assay; type: cell-based; details: Human alphaherpesvirus 1; HSV-1, CPE
Description: as §1, §2

[3] = VZV plaque reduction assay; type: cell-based; details: Human alphaherpesvirus 3, V2V
Description: The procedure is essentially the same as for the HSV plaque assay described above with two exceptions:
1. After addition of the drug, the plates are incubated for ten days.
2. On days three and six an additional 1 ml overlay with equal amounts of 2×MEM and 1% agarose are added.
as §4, with “The cells are then rinsed several times to remove any excess crystal violet and plaques enumerated using a stereomicroscope.” left out
as §2

HFF cells [4] = experiment: MTT assay for cell cytotoxicity; type: cell-based, human; details: stationary cells
Description: Twenty-four hours prior to assay, HFF cells are plated into 96 well plates at a concentration of […] cells per well. After 24 h, the media is aspirated and […] of drug is added to the first row of wells and then diluted serially 1:5 using the automated Cetus Liquid Handling System in a manner similar to that used in the CPE assay. The plates are then incubated in a CO2 incubator at 37° C. for seven days. At this time, each well receives 50 microliters of […] solution of MTT in Dulbecco's Phosphate Buffered Saline. The plates are then incubated for an additional four hours. At this time, the media is removed and replaced with 100 μl of 0.04N hydrochloric acid in isopropanol. After shaking briefly, the plates are then read on a plate reader at 550 nm.

HFF cells [5] = experiment: Neutral red uptake toxicity; type: cell-based, human; details: stationary cells
HFF cells [6] = experiment: Cell proliferation assay; type: cell-based, human; details: rapidly growing cells
Description: Twenty-four hours prior to assay, HFF cells are seeded in 6-well plates at a concentration of 2.5×10^4 cells per well in MEM containing 10% FBS. On the day of the assay, drugs are diluted serially in MEM containing 10% FBS at increments of 1:5 covering a range from 100 μg/ml to 0.03 μg/ml. […] The media from the wells is then aspirated and 2 ml of each drug concentration is then added to each well. The cells are then incubated in a Co2 incubator at 37° C. for 72 h. At the end of this time, the media-drug solution is removed and the cells washed. […] The cell-media mixture is then pipetted up and down vigorously to break up the cell suspension and 0.2 ml of the mixture is added to 9.8 ml of Isoton III and counted using a Coulter Counter. Each sample is counted three times with three replicate wells per sample.

HSV-1 McKrae Strain = experiment: Direct virucidal efficacy against HSV-1 on HFF monolayers; type: cell-based; details: for virucidal efficacy (HSV-1 titer): Experiment 1 (Table 2), 24 h PI; for effective virucidal concentration IC50 / effective virucidal concentration IC90: HSV-1
Description: HSV-1 McKrae Strain was diluted to a final concentration of 10^5 PFU/ml in minimal essential medium (MEM). Hereinafter, this dilution is referred to as the HSV-1 Suspension for convenience.
(§5) With sufficient stirring, all the compounds completely dissolved.
Each of the drug solutions were mixed with the HSV-1 Suspension in a 1:1 ratio. The drug and HSV-1 Suspension mixture was incubated at 37° C. for thirty minutes with agitation every ten minutes. After the incubation, fifty microliter aliquots were overlaid onto triplicate confluent human foreskin fibroblast (HFF) cell monolayers. The inoculum was absorbed for thirty minutes and then a medium containing the appropriate drug concentration in MEM was added to the monolayers to a final volume of 0.5 milliliters per culture-well. The monolayers were incubated at 37° C. The developing HSV-1 Cytopathology was monitored daily for two days by inverted light microscopy. Titers were calculated by multiple regression analysis. All data is presented as the average PFU/ml reduction at 24 and/or 48 hours after inoculation (PI).
1. HSV-1 inoculated, non-compound treated HFF monolayers were included as "positive controls"; and […]

HSV-2 (MS strain) [7] = experiment: Vaginal virus replication in primary genital HSV-2 infection of guinea pigs; type: in vivo, Female Hartley strain guinea pigs
Description: (§6) A series of studies were carried out to compare the activity of inventive antiviral Compounds 23, 76, and 82 in a primary genital HSV-2 infection of guinea pigs. The experiments were placebo-controlled and uninfected animals were treated with three concentrations of each of the preparations to assess skin irritation and determine the maximum tolerated dose.
(§7) The MS strain of HSV-2 was utilized for the experimental animal infection. Female Hartley strain guinea pigs (Charles River Breeding Laboratories, Kingston, N.Y.) weighing 250-300 g were inoculated intravaginally with 1.4×10^5 plaque forming units of HSV-2 one hour after being swabbed for the removal of vaginal secretions.
(§8) Groups of 10 infected guinea pigs were treated topically as stated above with 20 mg/ml (the maximum tolerated dose) of each compound beginning 6 h or 24 h after inoculation with HSV-2.
To determine the effect of treatment on vaginal virus replication, swabs of vaginal secretions were obtained on days 1, 3, 5, 7, and 10 after HSV-2 inoculation, placed in a tube containing 2.0 ml of media, vortexed and frozen at -70° until titrated for HSV-2. When all samples were collected, they were thawed, diluted serially and HSV-2 titers were determined using rabbit kidney cells in a microtiter CPE assay. Mean peak virus titers and areas under the virus titer-day curves were calculated and analyzed.
(§9) The number of animals infected over the number inoculated, lesion score-day areas and virus titer-day areas under the curve, peak lesion scores and peak virus titers between untreated and placebo-treated or placebo-treatedand drug-treated animals were compared using the Mann-Whitney U rank sum test. A p-value of 0.05 or less was considered significant.

HSV-2 (MS strain) [8] = experiment: External genital lesion development in primary genital HSV-2 infection of guinea pigs; type: in vivo, Female Hartley strain guinea pigs; set-up: key to Lesion Score-Day Area Under Curve: area under 0-5+ lesion score vs day curve (score-days); key to Mean Peak Lesion Score: lesion severity on 0-5+ scale
Description: as §6, §7, §8
To determine the effect of therapy on the development and spread of external genital lesions, lesion severity was scored on a 0-5+ scale through the primary infection (21 days). Mean peak lesion scores and the areas under the lesion score-day curves were calculated and analyzed.
as §9

[9] = tested on: human foreskin fibroblast (HFF) cell monolayers; experiment: Toxicity effects controls: sham-inoculated compound-treated HFF monolayers; type: cell-based; details: Experiment 1 (Table 1); further: key: +: toxic; -: no toxicity; ±: mild toxicity; T: toxicity effects interfered with CPE rating
From the text: as §5
In the tables, the symbols have the meaning indicated: […]

HCMV = HCMV plaque assay; type: cell-based; details: Human betaherpesvirus 5, HCMV
Description: The procedure is essentially the same as for HSV analysis with the following minor changes. The agarose used for the initial overlay and the two subsequent overlays is 0.8% rather than 1%. The assay is incubated for 14 days with the additional 1 ml overlays being applied on days four and eight.
as §4, with “The cells are then rinsed several times to remove any excess crystal violet and plaques enumerated using a stereomicroscope.” left out
as §2

## Nc1nc2c(ncn2COCCO)c(=O)[nH]1 [ACV]
HSV-2
  EC50: 0.7 µg/mL (≈ 3.11 µM)
EBV
  EC50: 5.8 µg/mL (≈ 25.8 µM)
HSV-1 [1]
  EC50: 0.2 µg/mL (≈ 0.888 µM)
HSV-1 [2]
  EC50: 0.2 µg/mL (≈ 0.888 µM)
[3]
  EC50: 3.2 µg/mL (≈ 14.2 µM)

## CC1=[N+]2CC[N+]3=C(C)C=C(c4ccccc4)[O][Co-3]23([NH3+])([NH3+])[O]C(c2ccccc2)=C1.[Cl-] [Compound 64]
HFF cells [4]
  toxicity IC50, MTT toxicity: 53 MCG/ML
HFF cells [5]
  toxicity IC50, neutral red uptake: 15.2 MCG/ML
HFF cells [6]
  toxicity IC50, cell proliferation: 38 MCG/ML

## CC1=C(Cl)C(C)=[N+]2CC[N+]3=C(C)C(Cl)=C(C)[O][Co-3]23([NH3+])([NH3+])[O]1.[Cl-] [Compound 67]
HFF cells [4]
  toxicity IC50, MTT toxicity: 42.0 MCG/ML
HFF cells [5]
  toxicity IC50, neutral red uptake: 12.1 MCG/ML
HFF cells [6]
  toxicity IC50, cell proliferation: 12.0 MCG/ML

## CC([O-])=CC(C)=NCCN=C(C)C=C(C)[O-].[Br-].[Co+3].c1ccncc1.c1ccncc1 [Compound 76]
HSV-1 McKrae Strain; 0.001 mg/ml
  virucidal efficacy (HSV-1 titer): 10^5 PFU/ml
HSV-1 McKrae Strain; .01 mg/ml
  virucidal efficacy (HSV-1 titer): 10^3 PFU/ml
HSV-1 McKrae Strain; Experiment 1 (Table 3)
  effective virucidal concentration IC50: 10 µg/mL
  effective virucidal concentration IC90: 100 to 1000 µg/mL
HSV-1 McKrae Strain; Experiment 2 (Table 6)
  effective virucidal concentration IC50: 10 µg/mL
  effective virucidal concentration IC90: 100 to 1000 µg/mL
HSV-2 (MS strain) [7]; 20 mg/ml, started +6h
  # Infected/# Inoculated: 5/10
  Mean Peak Virus Titer: 1.0
  P-Value for Mean Peak Virus Titer: < 0.001
  Virus Titer-Day Area Under Curve: 2.9
HSV-2 (MS strain) [7]; 20 mg/ml, started +24h
  # Infected/# Inoculated: 10/10
  Mean Peak Virus Titer: 4.3
  Virus Titer-Day Area Under Curve: 17.7
HSV-2 (MS strain) [7]; treatment beginning 6 h after infection
  infectivity rate: 50%
HSV-2 (MS strain) [8]; 20 mg/ml, started +6h
  Lesion Score-Day Area Under Curve: 4.4
  Mean Peak Lesion Score: 0.4
  P-Value for Mean Peak Lesion Score: < 0.001
HSV-2 (MS strain) [8]; 20 mg/ml, started +24h
  Lesion Score-Day Area Under Curve: 37.2
  Mean Peak Lesion Score: 3.3
HSV-2 (MS strain) [8]; started +24 h, vs untreated control
  lesion AUC difference vs untreated control animals: not significant
[9]; 24 h PI, 0.001 mg/ml
  toxicity effects: -
[9]; 24 h PI, 0.01 mg/ml
  toxicity effects: -
[9]; 24 h PI, 0.1 mg/ml
  toxicity effects: -
[9]; 48 h PI, 0.001 mg/ml
  toxicity effects: -
[9]; 48 h PI, 0.01 mg/ml
  toxicity effects: -
[9]; 48 h PI, 0.1 mg/ml
  toxicity effects: -
[9]; 48 h PI, 1 mg/ml
  toxicity effects: +
[9]; 48 h PI, 10 mg/ml
  toxicity effects: +

## Nc1nc2c(ncn2COC(CO)CO)c(=O)[nH]1 [DHPG]
HCMV
  EC50: 0.9 µg/mL (≈ 3.53 µM)

## O=c1[nH]c(=O)n([C@@H]2O[C@H](CO)[C@@H](O)[C@@H]2F)cc1I [FIAU, 2'-fluoro-5-iodo-arabinosyl-uracil]
HFF cells [6]
  toxicity IC50, cell proliferation: 8.4 MCG/ML and 3.3 MCG/ML
